Earlier results as cited in patent US20120289565A1, “COMBINATIONS OF TOLTERODINE AND SALIVARY STIMULANTS FOR THE TREATMENT OF OVERACTIVE BLADDER” (TheraVida, Inc., priority 2011, published 2012).

Conditions: 5 mg of pilocarpine

CC[C@@H]1C(=O)OC[C@@H]1Cc1cncn1C [pilocarpine]
time of maximum saliva output after administration: about 30 minutes
